According to paper PMC10865344, “Self-Assembly and Antimicrobial Activity of Lipopeptides Containing Lysine-Rich Tripeptides” (Biomacromolecules, 2024):
≈ marks a conversion by molar mass, not a printed value. Where a SMILES comes first, the peptide text is derived from it. [ ]: non-standard residue; d: D form. The star is where a group is joined. Palmitoyl = CCCCCCCCCCCCCCCC(=O)*

Tests used:
S. aureus NCDO 949 = assay type: cell-based, Staphylococcus aureus; conditions: NCDO 949, 24 h
Protocol: (§1) Antibacterial susceptibility testing was performed using a broth microdilution assay, against both Gram-negative and Gram-positive bacteria, as previously described by Kourmentza et al.[44] The target strains used were E. coli K-12, S. enterica NCTC 5188, and S. aureus NCDO 949. The test compounds were dissolved in water, filter-sterilized, and further diluted in Mueller-Hinton broth (MHB) which was used as the growth medium for the tests. 2-fold dilutions were performed, and 100 μL of each dilution was transferred to each well of 96-well plates. The final test concentration range of the compounds was 1.95–1000 μg/mL. Additionally, the 96-well plates contained wells with 200 μL of growth medium that served as sterility controls and wells filled with 100 μL of growth medium and 100 μL of inoculum that served as growth controls. The remaining wells were inoculated with 100 μL of a bacterial culture. The bacterial suspensions were prepared from overnight cultures in MHB. The bacterial density was adjusted to 0.5 McFarland (standard), and the suspensions were subsequently diluted 100 times using the growth medium. The 96-well plates were incubated at 37 °C for 24 h and the OD at 620 nm of the wells was assessed for growth. The MIC was defined as the lowest concentration of the antimicrobial agent tested that prevented any discernible growth after 24 h.
(§2) Since all the molecules are biocompatible at low concentrations, their antibacterial efficacy was examined in preliminary tests using a broth microdilution assay against both Gram-negative and Gram-positive bacteria. Here, E. coli K-12, S. enterica NCTC 5188 were cultured as Gram-negative bacteria and S. aureus NCDO 949 was used as a model Gram-positive bacterium. The lipopeptides were dissolved in water, filter-sterilized, and further diluted in Mueller-Hinton broth, which was used as the growth medium for the experiment to determine MIC values. […] E. coli was most susceptible to compounds P1 and P1D with MICs falling within the range of 15.63–31.25 μg/mL (Table 1). […] Overall, the P1 analogues have lower MIC values than those for the P2 analogues, especially for S. enterica.

[1] = test system: L929 murine fibroblast cell lines; conditions: 48 h, 0.05 wt %
Protocol: L929 murine fibroblast cell lines (ECACC General Cell Collection) were grown in Dulbecco’s modified Eagle’s medium (DMEM) supplemented with 10% fetal bovine serum (FBS), 20 mM HEPES, and 1% GlutaMAX. The cells were maintained at pH 7.4, 37 °C, and 5% CO2 in 25 cm^2 cell culture flasks.
For the cytotoxicity assay, approximately 6000 cells per well were seeded in 96-well plates. The medium was exchanged after 24 h by adding solutions of different concentrations of the lipopeptides ranging from 0.05 to 0.0001 wt %. After 48 h of treatment, cell viability was assessed using an MTT [3-(4, 5-dimethylthiazolyl-2)-2, 5-diphenyltetrazolium bromide] assay. Here, the culture medium was removed, followed by the addition of a solution of MTT in DMEM medium at a concentration of 0.5 mg/mL. The plate was incubated for 4 h at 37 °C. Next, to dissolve the formazan crystals, dimethyl sulfoxide was added. Thereafter, using an automatic plate reader, the absorbance was measured at 560 nm. Cell survival was expressed as a percentage of viable cells in the presence of peptides compared with control cells grown in their absence. The assay was repeated three times, and the results were averaged. Statistical significance was tested using multiple Student’s t-tests.
Here, the cytotoxicity of all the lipopeptides was investigated by MTT assays on L929 murine fibroblast cell lines. […] For all the lipopeptides, the cytotoxicity results were obtained after 48 h of cell culture.

E. coli K-12 = assay type: cell-based, Escherichia coli; conditions: K-12, 24 h
Protocol: as §1, §2

[2] = SAXS of micelles, core-shell sphere form factor and hard sphere structure factor fit; assay type: physicochemical
Protocol: SAXS experiments were performed on beamline B21 at Diamond (Didcot, UK). The sample solutions were loaded into the 96-well plate of an EMBL BioSAXS robot and then injected via an automated sample exchanger into a quartz capillary (1.8 mm internal diameter) with the X-ray beam. The quartz capillary was enclosed in a vacuum chamber to avoid parasitic scattering. After the sample was injected into the capillary and reached the X-ray beam, the flow was stopped during SAXS data acquisition. Beamline B21 operates with a fixed camera length (3.9 m) and fixed energy (12.4 keV). The images were captured by using a PILATUS 2 M detector. Data processing was performed by using the dedicated beamline software ScÅtter.
More quantitative information about these self-assembled nanostructures was obtained from SAXS, also performed for 1 wt % aqueous solutions of the four lipopeptides. Consistent with cryo-TEM, the form factors for P1, P1D, P2, and P2D can be fitted based on the core–shell sphere structure corresponding to a hydrophobic core and peptide corona. The fit parameters listed in SI Table S1 show outer radii in the range (2.47–2.90 ± 0.4) nm, consistent with cryo-TEM. The inner core radius is 1.45–1.56 nm, which is consistent with the length of an extended C16 lipid chain plus the first hydrophobic amino acid (Y or W). […] The shell thickness may be compared to the length of a tripeptide in an extended structure (such as PPII), 3 × 0.31 nm = 0.93 nm (residue translation value taken from ref ([55])) and is in good agreement with this value for P1, P1D, and P2D. […] The form factor parameters are the same within uncertainties for the other three lipopeptides. The association number can be estimated for P1 (similar values are expected for P1D and P2D since the micelle radius and molecular volume are similar) using the volume of a micelle Vmic = 4/3π(2.52 nm)^3 = 67.0 nm^3, while the molecular volume Vmol = 0.62 nm^3 was obtained from the hydrophobicity surface/molecular volume calculation in UCSF Chimera.[56] This leads to an estimated association number p = Vmic/Vmol = (108 ± 20). […]

S. enterica NCTC 5188 = experiment: Antibacterial susceptibility, broth microdilution assay (MIC); assay type: cell-based, Salmonella enterica; conditions: S. enterica NCTC 5188, broth microdilution in Mueller-Hinton broth, 37 °C, 24 h, OD 620 nm, test range 1.95–1000 μg/mL
Protocol: as §1, with “24 h. […]” for “24 h.”

[3] = Critical aggregation concentration (CAC) by ANS fluorescence probe assay; assay type: physicochemical; conditions: 2 × 10^–3 wt % ANS solution, λex = 356 nm, emission 486 nm, 25 °C, aqueous solution
Protocol: Fluorescence experiments were carried out using a Varian Cary Eclipse spectrofluorometer in 4 mm inner-width quartz cuvettes. Excitation and emission bandwidths of 2.5 nm were used as the experimental settings. The temperature was set at 25 °C for all of the experiments. The CAC value for all of the lipopeptides was assessed by fluorescence experiments with 8-anilo-1-naphthalenesulfonic acid (ANS). ANS is a suitable fluorophore to determine the CAC value, due to changes in local hydrophobicity.[43] For this assay, various concentrations of samples were prepared in 2 × 10^–3 wt % ANS solution. Fluorescence spectra were recorded from 400 to 670 nm with λex = 356 nm.
To determine the CAC value of individual lipopeptides, the results were plotted as I/I0 versus log(c/wt %), where I stands for the maximum fluorescence intensity of ANS containing the various concentrations of samples and I0 stands for the intensity for the control, i.e., ANS solution without lipopeptide.
To determine CAC values of these lipopeptides, fluorescence probe assays using ANS were performed.[43] Emission spectra of the four lipopeptides were collected at different concentrations after excitation at 356 nm. At higher concentrations, an emission peak at 486 nm is visible. […] The lower CAC values for P2 and P2D are due to the higher hydrophobicity of tryptophan than tyrosine.

[4] = 1 wt% sample at native pH = 4, core-shell sphere form factor

Compound | MIC (S. aureus NCDO 949) [µg/mL] | cell viability [1] [%] | MIC (E. coli K-12) [µg/mL] | lower range MIC value for E. coli as molar concentration (E. coli K-12) [µM] | Ri, micelle inner core radius [2, 4] [Å] | Ro, micelle outer radius [2, 4] [Å] | RHS, hard sphere radius ([2]; 1 wt% sample at native pH = 4, hard sphere structure factor) [Å] | MIC (S. enterica NCTC 5188) [µg/mL] | CAC (concentration at the breakpoint of I/I0 at 486 nm vs concentration) [3] [wt %]
CCCCCCCCCCCCCCCC(=O)N[C@@H](Cc1ccc(O)cc1)C(=O)N[C@H](CCCCN)C(=O)N[C@H](CCCCN)C(N)=O [P1D] (Palmitoyl-Tyr-[dK]-[dK]-NH2) | 31.25 (≈ 46.3 µM) | 44.1 ± 7.6 | 15.63 to 31.25 | 22 to 23 |  |  |  |  | 
CCCCCCCCCCCCCCCC(=O)N[C@@H](Cc1ccc(O)cc1)C(=O)N[C@@H](CCCCN)C(=O)N[C@@H](CCCCN)C(N)=O [P1] (Palmitoyl-Tyr-Lys-Lys-NH2) | 31.25 to 62.5 | 53.1 ± 5.1 | 15.63 to 31.25 | 22 to 23 |  |  |  |  | 
CCCCCCCCCCCCCCCC(=O)N[C@@H](Cc1c[nH]c2ccccc12)C(=O)N[C@H](CCCCN)C(=O)N[C@H](CCCCN)C(N)=O [P2D] (Palmitoyl-Trp-[dK]-[dK]-NH2) | 31.25 to 62.5 | 13.0 ± 1.1 | 31.25 to 62.5 |  | 15.1 | 26.3 | 79.3 | 62.5 (≈ 89.5 µM) | 0.00257 ± 0.05
CCCCCCCCCCCCCCCC(=O)N[C@@H](Cc1c[nH]c2ccccc12)C(=O)N[C@@H](CCCCN)C(=O)N[C@@H](CCCCN)C(N)=O [P2] (Palmitoyl-Trp-Lys-Lys-NH2) | 31.25 to 62.5 | 20.2 ± 2.8 | 15.63 to 62.5 | 22 to 23 |  |  |  | 62.5 to 250 | 
